# Assay results from BindingDB's records for doi:10.1016/j.ejphar.2003.10.004 (Yamanouchi Pharmaceutical, 2004).
# Experiments:
# [1] = target: 5-hydroxytryptamine receptor 2A (Homo sapiens, UniProt P28223)
# [2] = target: 5-hydroxytryptamine receptor 2B (Homo sapiens, UniProt P41595)
# [3] = target: 5-hydroxytryptamine receptor 7 (Homo sapiens, UniProt P34969)
# [4] = target: T1, 5-hydroxytryptamine receptor 3A (Homo sapiens, UniProt P46098)
# T1 sequence (P46098 whole entry): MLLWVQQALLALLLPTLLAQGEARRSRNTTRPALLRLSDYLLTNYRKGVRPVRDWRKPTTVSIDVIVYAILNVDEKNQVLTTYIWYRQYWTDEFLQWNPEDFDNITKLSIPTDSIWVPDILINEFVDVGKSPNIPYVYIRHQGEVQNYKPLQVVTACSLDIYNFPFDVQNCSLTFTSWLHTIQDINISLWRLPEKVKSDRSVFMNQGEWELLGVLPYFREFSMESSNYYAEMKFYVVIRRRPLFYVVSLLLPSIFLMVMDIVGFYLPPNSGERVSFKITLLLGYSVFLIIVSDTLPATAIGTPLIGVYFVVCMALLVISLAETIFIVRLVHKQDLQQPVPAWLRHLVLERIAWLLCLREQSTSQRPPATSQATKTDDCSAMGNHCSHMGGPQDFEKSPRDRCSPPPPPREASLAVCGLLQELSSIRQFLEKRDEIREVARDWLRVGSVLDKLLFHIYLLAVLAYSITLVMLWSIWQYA
# [5] = target: 5-hydroxytryptamine 1D receptor (Bos taurus, UniProt Q8MI13)
# Sequence of 5-hydroxytryptamine 1D receptor (Q8MI13 whole entry): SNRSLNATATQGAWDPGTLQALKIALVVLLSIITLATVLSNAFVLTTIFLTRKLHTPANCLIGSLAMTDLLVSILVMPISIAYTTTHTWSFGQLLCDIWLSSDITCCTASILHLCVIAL
# [6] = target: 5-hydroxytryptamine receptor 5A (Homo sapiens, UniProt P47898)
# Sequence of 5-hydroxytryptamine receptor 5A (P47898 whole entry): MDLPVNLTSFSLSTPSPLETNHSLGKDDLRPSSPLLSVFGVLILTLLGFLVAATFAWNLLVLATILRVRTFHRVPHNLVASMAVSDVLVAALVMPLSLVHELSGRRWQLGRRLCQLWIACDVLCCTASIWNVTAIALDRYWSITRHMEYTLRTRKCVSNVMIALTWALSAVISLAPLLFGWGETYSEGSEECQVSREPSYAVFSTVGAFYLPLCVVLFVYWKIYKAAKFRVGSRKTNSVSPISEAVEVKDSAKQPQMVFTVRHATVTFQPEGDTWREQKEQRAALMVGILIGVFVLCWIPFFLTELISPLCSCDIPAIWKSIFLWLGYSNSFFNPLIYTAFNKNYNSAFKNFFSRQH
# [7] = target: 5-hydroxytryptamine receptor 1B (Canis lupus familiaris, UniProt P79250)
# Sequence of 5-hydroxytryptamine receptor 1B (P79250 whole entry): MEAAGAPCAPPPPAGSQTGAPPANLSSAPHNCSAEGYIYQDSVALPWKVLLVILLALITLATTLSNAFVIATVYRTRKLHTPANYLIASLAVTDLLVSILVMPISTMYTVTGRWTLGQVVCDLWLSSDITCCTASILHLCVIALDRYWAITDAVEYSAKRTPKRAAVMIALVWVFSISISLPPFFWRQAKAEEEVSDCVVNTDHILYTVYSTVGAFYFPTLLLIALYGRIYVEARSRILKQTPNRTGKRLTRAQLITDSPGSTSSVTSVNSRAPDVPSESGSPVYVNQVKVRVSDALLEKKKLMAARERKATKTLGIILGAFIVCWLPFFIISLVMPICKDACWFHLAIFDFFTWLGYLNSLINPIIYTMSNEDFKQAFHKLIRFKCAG
# [8] = target: T2, 5-hydroxytryptamine receptor 2C (Homo sapiens, UniProt P28335)
# T2 sequence (P28335 whole entry): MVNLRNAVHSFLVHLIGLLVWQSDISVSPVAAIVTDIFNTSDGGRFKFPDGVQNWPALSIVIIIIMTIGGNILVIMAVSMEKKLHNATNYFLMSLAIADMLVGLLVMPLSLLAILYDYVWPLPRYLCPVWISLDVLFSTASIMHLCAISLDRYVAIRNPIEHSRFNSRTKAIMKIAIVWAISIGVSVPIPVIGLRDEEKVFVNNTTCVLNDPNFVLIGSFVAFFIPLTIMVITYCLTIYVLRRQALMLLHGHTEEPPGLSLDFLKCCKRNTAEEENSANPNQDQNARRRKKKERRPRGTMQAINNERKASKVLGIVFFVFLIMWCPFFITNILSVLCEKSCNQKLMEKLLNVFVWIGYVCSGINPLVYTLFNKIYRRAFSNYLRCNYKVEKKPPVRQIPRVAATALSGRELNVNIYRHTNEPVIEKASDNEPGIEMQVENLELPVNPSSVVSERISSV
# [9] = target: T3, Alpha-2A adrenergic receptor (Homo sapiens, UniProt P08913)
# T3 sequence (P08913 whole entry): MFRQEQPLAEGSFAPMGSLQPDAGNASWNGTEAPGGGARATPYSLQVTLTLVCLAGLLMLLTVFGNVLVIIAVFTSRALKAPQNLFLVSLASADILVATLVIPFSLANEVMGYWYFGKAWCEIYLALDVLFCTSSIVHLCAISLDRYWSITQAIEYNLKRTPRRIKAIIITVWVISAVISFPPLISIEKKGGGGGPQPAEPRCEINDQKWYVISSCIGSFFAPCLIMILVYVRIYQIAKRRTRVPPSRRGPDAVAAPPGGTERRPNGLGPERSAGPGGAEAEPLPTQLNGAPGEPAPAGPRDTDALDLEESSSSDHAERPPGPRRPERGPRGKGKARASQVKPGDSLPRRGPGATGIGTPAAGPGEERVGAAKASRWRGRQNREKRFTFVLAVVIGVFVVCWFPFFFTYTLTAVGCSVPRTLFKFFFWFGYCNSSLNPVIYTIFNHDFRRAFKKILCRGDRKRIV
# Sequence of 5-hydroxytryptamine receptor 2B (P41595 whole entry): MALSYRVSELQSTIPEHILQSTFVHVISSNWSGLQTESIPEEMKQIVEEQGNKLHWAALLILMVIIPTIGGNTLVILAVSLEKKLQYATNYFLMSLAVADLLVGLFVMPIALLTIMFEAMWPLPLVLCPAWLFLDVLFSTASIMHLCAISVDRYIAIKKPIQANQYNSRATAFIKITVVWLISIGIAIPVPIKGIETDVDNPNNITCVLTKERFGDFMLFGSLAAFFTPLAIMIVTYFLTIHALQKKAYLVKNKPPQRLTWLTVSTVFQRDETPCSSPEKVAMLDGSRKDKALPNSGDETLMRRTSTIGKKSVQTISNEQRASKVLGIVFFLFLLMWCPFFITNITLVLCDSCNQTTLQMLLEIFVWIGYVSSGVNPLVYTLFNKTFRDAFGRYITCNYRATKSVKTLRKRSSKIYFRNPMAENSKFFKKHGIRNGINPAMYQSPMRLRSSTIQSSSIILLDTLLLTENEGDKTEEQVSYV
# Sequence of 5-hydroxytryptamine receptor 2A (P28223 whole entry): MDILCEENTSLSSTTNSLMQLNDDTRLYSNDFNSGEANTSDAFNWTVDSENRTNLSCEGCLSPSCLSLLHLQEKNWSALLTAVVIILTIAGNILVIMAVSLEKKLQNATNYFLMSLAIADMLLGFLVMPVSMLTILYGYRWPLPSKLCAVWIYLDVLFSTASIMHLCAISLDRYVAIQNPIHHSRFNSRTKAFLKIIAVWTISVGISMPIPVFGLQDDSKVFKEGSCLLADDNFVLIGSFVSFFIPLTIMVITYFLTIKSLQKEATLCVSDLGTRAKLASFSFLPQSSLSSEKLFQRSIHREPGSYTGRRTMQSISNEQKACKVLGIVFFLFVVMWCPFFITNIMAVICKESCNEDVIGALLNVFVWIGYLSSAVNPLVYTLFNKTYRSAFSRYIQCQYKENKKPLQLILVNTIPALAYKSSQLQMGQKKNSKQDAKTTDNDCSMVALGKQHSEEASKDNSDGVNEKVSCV
# Sequence of 5-hydroxytryptamine receptor 7 (P34969 whole entry): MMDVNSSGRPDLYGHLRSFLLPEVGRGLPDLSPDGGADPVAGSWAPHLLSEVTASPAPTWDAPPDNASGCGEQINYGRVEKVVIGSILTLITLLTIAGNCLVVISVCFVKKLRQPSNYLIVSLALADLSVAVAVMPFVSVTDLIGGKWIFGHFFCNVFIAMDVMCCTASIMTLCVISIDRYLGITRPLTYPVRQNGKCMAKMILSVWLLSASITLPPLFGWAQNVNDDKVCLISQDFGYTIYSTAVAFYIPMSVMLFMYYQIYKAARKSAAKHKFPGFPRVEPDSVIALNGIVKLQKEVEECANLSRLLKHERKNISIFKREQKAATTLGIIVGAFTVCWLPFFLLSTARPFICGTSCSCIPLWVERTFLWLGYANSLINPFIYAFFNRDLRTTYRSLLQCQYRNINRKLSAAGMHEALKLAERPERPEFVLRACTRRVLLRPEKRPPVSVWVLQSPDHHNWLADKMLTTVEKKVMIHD
SMILES,Ki [1] [nM],Ki [2] [nM],Ki [3] [nM],Ki [4] [nM],Ki [5] [nM],Ki [6] [nM],Ki [7] [nM],Ki [8] [nM],Ki [9] [nM]
CCc1cc2c(ccc3cnn(CC(C)N)c32)o1 (configuration not stated) [CAS_3045225],13,2.5,177,1000,481,1000,1000,0.89,126
CC(N)Cn1ccc2cc(F)c(Cl)cc21 (configuration not stated) [NSC_3045226],24,2.4,,,,,,19,
